Data as given in PubChem BioAssay (NCI).
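Cells were grown in 96-well plates and exposed to each compound for 48 hours at five concentrations; endpoints were interpolated linearly between bracketing concentrations, or set to the highest concentration if not reached. Here, GI50 denotes the concentration required for 50% inhibition of growth. Definition used: TGI = concentration required for complete inhibition of growth.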

Assays:
Test in all cases: NCI-60 cell line screen, 48 h
NCI-H23 lung = system: NCI-H23 lung
ACHN renal = system: ACHN renal
CAKI-1 renal = system: CAKI-1 renal
SNB-75 CNS = system: SNB-75 CNS
HS 578T breast = system: HS 578T breast
HCT-116 colon = system: HCT-116 colon
SR leukemia = system: SR leukemia
PC-3 prostate = system: PC-3 prostate
MDA-MB-435 = system: MDA-MB-435
UO-31 renal = system: UO-31 renal
U251 CNS = system: U251 CNS
M14 melanoma = system: M14 melanoma
DU-145 prostate = system: DU-145 prostate
SF-295 CNS = system: SF-295 CNS
SF-268 CNS = system: SF-268 CNS
RPMI-8226 leukemia = system: RPMI-8226 leukemia
NCI-H226 lung = system: NCI-H226 lung
KM12 colon = system: KM12 colon
SK-MEL-5 melanoma = system: SK-MEL-5 melanoma
HOP-62 NSCLC = system: HOP-62 NSCLC
T-47D breast = system: T-47D breast
RXF 393 renal = system: RXF 393 renal
LOX IMVI melanoma = system: LOX IMVI melanoma
OVCAR-4 ovarian = system: OVCAR-4 ovarian
NCI/ADR-RES ovarian = system: NCI/ADR-RES ovarian
HCT-15 colon = system: HCT-15 colon
A549 NSCLC = system: A549 NSCLC
COLO 205 colon = system: COLO 205 colon
MOLT-4 leukemia = system: MOLT-4 leukemia
OVCAR-5 ovarian = system: OVCAR-5 ovarian
A498 renal = system: A498 renal
SF-539 CNS = system: SF-539 CNS
MDA-MB-231 breast = system: MDA-MB-231 breast
K-562 leukemia = system: K-562 leukemia
HT29 colon = system: HT29 colon
SK-MEL-2 melanoma = system: SK-MEL-2 melanoma
SW-620 colon = system: SW-620 colon
IGROV1 ovarian = system: IGROV1 ovarian
786-0 renal = system: 786-0 renal
SNB-19 CNS = system: SNB-19 CNS
UACC-257 melanoma = system: UACC-257 melanoma
OVCAR-8 ovarian = system: OVCAR-8 ovarian
EKVX NSCLC = system: EKVX NSCLC
UACC-62 melanoma = system: UACC-62 melanoma
SK-MEL-28 melanoma = system: SK-MEL-28 melanoma
NCI-H460 lung = system: NCI-H460 lung
NCI-H522 lung = system: NCI-H522 lung
SN12C renal = system: SN12C renal
BT-549 breast = system: BT-549 breast
CCRF-CEM leukemia = system: CCRF-CEM leukemia
HCC-2998 colon = system: HCC-2998 colon
OVCAR-3 ovarian = system: OVCAR-3 ovarian
MCF7 breast = system: MCF7 breast
MALME-3M melanoma = system: MALME-3M melanoma
TK-10 renal = system: TK-10 renal
SK-OV-3 ovarian = system: SK-OV-3 ovarian

## Clc1ccc(-c2c3c(nn2-c2ccccn2)CCc2ccccc2-3)cc1Cl
NCI-H23 lung
  GI50: > 100 µM
  TGI: > 100 µM
ACHN renal
  GI50: 74 µM
  TGI: > 100 µM
CAKI-1 renal
  GI50: > 100 µM
  TGI: > 100 µM
SNB-75 CNS
  GI50: 67.6 µM
  TGI: > 100 µM
HS 578T breast
  GI50: > 100 µM
  TGI: > 100 µM
HCT-116 colon
  GI50: 76.1 µM
  TGI: > 100 µM
SR leukemia
  GI50: 78.1 µM
  TGI: > 100 µM
PC-3 prostate
  GI50: > 100 µM
  TGI: > 100 µM
MDA-MB-435
  GI50: > 100 µM
  TGI: > 100 µM
UO-31 renal
  GI50: > 100 µM
  TGI: > 100 µM
U251 CNS
  GI50: > 100 µM
  TGI: > 100 µM
M14 melanoma
  GI50: 34 µM
  TGI: > 100 µM
DU-145 prostate
  GI50: > 100 µM
  TGI: > 100 µM
SF-295 CNS
  GI50: 95.2 µM
  TGI: > 100 µM
SF-268 CNS
  GI50: > 100 µM
  TGI: > 100 µM
RPMI-8226 leukemia
  GI50: 31.4 µM
  TGI: > 100 µM
NCI-H226 lung
  GI50: > 100 µM
  TGI: > 100 µM
KM12 colon
  GI50: > 100 µM
  TGI: > 100 µM
SK-MEL-5 melanoma
  GI50: > 100 µM
  TGI: > 100 µM
HOP-62 NSCLC
  GI50: 50.2 µM
  TGI: > 100 µM
T-47D breast
  GI50: > 100 µM
  TGI: > 100 µM
RXF 393 renal
  GI50: 94.6 µM
  TGI: > 100 µM
LOX IMVI melanoma
  GI50: > 100 µM
  TGI: > 100 µM
OVCAR-4 ovarian
  GI50: 39.8 µM
  TGI: > 100 µM
NCI/ADR-RES ovarian
  GI50: > 100 µM
  TGI: > 100 µM
HCT-15 colon
  GI50: > 100 µM
  TGI: > 100 µM
A549 NSCLC
  GI50: > 100 µM
  TGI: > 100 µM
COLO 205 colon
  GI50: > 100 µM
  TGI: > 100 µM
MOLT-4 leukemia
  GI50: > 100 µM
  TGI: > 100 µM
OVCAR-5 ovarian
  GI50: > 100 µM
  TGI: > 100 µM
A498 renal
  GI50: > 100 µM
  TGI: > 100 µM
SF-539 CNS
  GI50: > 100 µM
  TGI: > 100 µM
MDA-MB-231 breast
  GI50: 73.7 µM
  TGI: > 100 µM
K-562 leukemia
  GI50: > 100 µM
  TGI: > 100 µM
HT29 colon
  GI50: 46.3 µM
  TGI: > 100 µM
SK-MEL-2 melanoma
  GI50: > 100 µM
  TGI: > 100 µM
SW-620 colon
  GI50: > 100 µM
  TGI: > 100 µM
IGROV1 ovarian
  GI50: > 100 µM
  TGI: > 100 µM
786-0 renal
  GI50: 85 µM
  TGI: > 100 µM
SNB-19 CNS
  GI50: > 100 µM
  TGI: > 100 µM
UACC-257 melanoma
  GI50: > 100 µM
  TGI: > 100 µM
OVCAR-8 ovarian
  GI50: > 100 µM
  TGI: > 100 µM
EKVX NSCLC
  GI50: > 100 µM
  TGI: > 100 µM
UACC-62 melanoma
  GI50: > 100 µM
  TGI: > 100 µM
SK-MEL-28 melanoma
  GI50: > 100 µM
  TGI: > 100 µM
NCI-H460 lung
  GI50: > 100 µM
  TGI: > 100 µM
NCI-H522 lung
  GI50: > 100 µM
  TGI: > 100 µM
SN12C renal
  GI50: > 100 µM
  TGI: > 100 µM
BT-549 breast
  GI50: > 100 µM
  TGI: > 100 µM
CCRF-CEM leukemia
  GI50: > 100 µM
  TGI: > 100 µM
HCC-2998 colon
  GI50: > 100 µM
  TGI: > 100 µM
OVCAR-3 ovarian
  GI50: > 100 µM
  TGI: > 100 µM
MCF7 breast
  GI50: > 100 µM
  TGI: > 100 µM
MALME-3M melanoma
  GI50: 47.9 µM
  TGI: > 100 µM
TK-10 renal
  GI50: 65.6 µM
  TGI: > 100 µM
SK-OV-3 ovarian
  GI50: > 100 µM
  TGI: > 100 µM
